ChEMBL document CHEMBL1201862, “PubChem BioAssay data set” (2004)
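96-well plates; 48 h exposure; 5 concentrations. Endpoints by linear interpolation between flanking doses. Not reached: highest tested concentration assigned. At the GI50, growth is halved.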 The source made the active and inactive calls. Rule as the data show it: active = GI50 up to about 1.1 µM and inactive = higher.

What was measured:
Assay in all cases: NCI-60 cell line screen, 48 h
MDA-N = test system: MDA-N
RPMI-8226 = test system: RPMI-8226
SR = test system: SR
NCI/ADR-RES = test system: NCI/ADR-RES
OVCAR-4 = test system: OVCAR-4
HCT-15 = test system: HCT-15
BT-549 = test system: BT-549
MOLT-4 = test system: MOLT-4
786-0 = test system: 786-0
HT-29 = test system: HT-29
NCI-H226 = test system: NCI-H226
PC-3 = test system: PC-3
OVCAR-5 = test system: OVCAR-5
UO-31 = test system: UO-31
M14 = test system: M14
NCI-H522 = test system: NCI-H522
SF-268 = test system: SF-268
UACC-257 = test system: UACC-257
MCF7 = test system: MCF7

Row | Structure (SMILES) | GI50 (MDA-N) | GI50 (RPMI-8226) | GI50 (SR) | GI50 (NCI/ADR-RES) | GI50 (OVCAR-4) | GI50 (HCT-15) | GI50 (BT-549) | GI50 (MOLT-4) | GI50 (786-0) | GI50 (HT-29) | GI50 (NCI-H226) | GI50 (PC-3) | GI50 (OVCAR-5) | GI50 (UO-31) | GI50 (M14) | GI50 (NCI-H522) | GI50 (SF-268) | GI50 (UACC-257) | GI50 (MCF7)
1 | CCOC(=O)C(C)c1nc2c(Cl)c3ncccc3cc2[nH]c1=O (stereo unspecified) | > 100 µM (inactive) | 22.1 µM (inactive) | 12.9 µM (inactive) | 29.9 µM (inactive) | 57.9 µM (inactive) | 57.3 µM | 57 µM (inactive) | 31.4 µM (inactive) | > 100 µM (inactive) | 30.7 µM (inactive) | 53.3 µM (inactive) | 40.7 µM (inactive) | > 100 µM (inactive) | 23.7 µM (inactive) | 44.8 µM (inactive) | 50.7 µM (inactive) | 41 µM (inactive) | > 100 µM (inactive) | 
2 | O=C(C(Cl)Cl)N(O)c1ccccc1OCc1ccccc1 |  | 34.2 µM (inactive) | 22.9 µM (inactive) | 22.8 µM (inactive) | 26.6 µM (inactive) | 44.2 µM | 0.0395 µM (active) | 41.6 µM (inactive) | 83.2 µM (inactive) | 17.2 µM (inactive) | 78.3 µM (inactive) | 27.8 µM (inactive) | > 100 µM (inactive) | 36.9 µM (inactive) | > 100 µM (inactive) | 25.6 µM (inactive) | 73.3 µM (inactive) | 13.7 µM (inactive) | 56.5 µM (inactive)
3 | Cc1ccc(-c2[nH]c(=O)n(C3OC(CO)C(O)C(O)C3O)c(=O)c2C#N)cc1 (stereo unspecified) |  | > 100 µM (inactive) | 95.3 µM (inactive) | > 100 µM (inactive) | > 100 µM (inactive) | > 100 µM | > 100 µM (inactive) | > 100 µM (inactive) | > 100 µM (inactive) | > 100 µM (inactive) | > 100 µM (inactive) | > 100 µM (inactive) | > 100 µM (inactive) | > 100 µM (inactive) | > 100 µM (inactive) | > 100 µM (inactive) | > 100 µM (inactive) | > 100 µM (inactive) | > 100 µM (inactive)
4 | O=c1cccc(Cl)[nH]1 |  | > 100 µM (inactive) | > 100 µM (inactive) | > 100 µM (inactive) | > 100 µM (inactive) | > 100 µM | > 100 µM (inactive) | > 100 µM (inactive) | > 100 µM (inactive) | > 100 µM (inactive) | > 100 µM (inactive) | > 100 µM (inactive) | > 100 µM (inactive) | > 100 µM (inactive) | > 100 µM (inactive) | > 100 µM (inactive) | > 100 µM (inactive) | > 100 µM (inactive) | > 100 µM (inactive)
5 | CC#CCCCC1(C)CCCNC1=S (stereo unspecified) |  |  | > 10 µM (inactive) | > 10 µM (inactive) | > 10 µM (inactive) | > 10 µM | > 10 µM (inactive) | > 10 µM (inactive) | > 10 µM (inactive) | > 10 µM (inactive) |  | > 10 µM (inactive) | > 10 µM (inactive) | > 10 µM (inactive) | > 10 µM (inactive) | > 10 µM (inactive) | > 10 µM (inactive) | > 10 µM (inactive) | > 10 µM (inactive)
6 | O=C1/C(=C/C=C/c2ccccc2)CCC1CNc1ccccc1 (stereo unspecified) |  | 1.59 µM (inactive) | 3.52 µM (inactive) | 96.8 µM (inactive) | 99.3 µM (inactive) | 18.4 µM | 32.1 µM (inactive) | 20.3 µM (inactive) | 16.6 µM (inactive) | 24.7 µM (inactive) | > 100 µM (inactive) | 36 µM (inactive) | > 65.8 µM (inactive) | 59.8 µM (inactive) | 30.2 µM (inactive) | 9.62 µM (inactive) | 36.7 µM (inactive) | 42.5 µM (inactive) | 6.49 µM (inactive)
7 | CNC(Cc1ccccc1)c1cccc(OC)c1O (stereo unspecified) | 99.3 µM (inactive) |  | > 100 µM (inactive) | > 100 µM (inactive) | > 100 µM (inactive) | > 100 µM | > 100 µM (inactive) | > 100 µM (inactive) | > 100 µM (inactive) | 91.6 µM (inactive) | > 100 µM (inactive) | 60.7 µM (inactive) | > 100 µM (inactive) | > 100 µM (inactive) | > 100 µM (inactive) | > 100 µM (inactive) | > 100 µM (inactive) | 18.6 µM (inactive) | 
8 | O=C(O/N=c1/ccc(=O)/c(=N\OC(=O)c2ccccc2)c1=O)c1ccccc1 | > 100 µM (inactive) | 79.8 µM (inactive) | > 100 µM (inactive) | > 100 µM (inactive) | > 100 µM (inactive) | > 100 µM |  | 40.2 µM (inactive) | > 100 µM (inactive) | > 100 µM (inactive) | > 100 µM (inactive) | 76.4 µM (inactive) | > 100 µM (inactive) | > 100 µM (inactive) | > 100 µM (inactive) | > 100 µM (inactive) | > 100 µM (inactive) |  | 1.81 µM (inactive)
9 | CSc1cc(Cl)c(C)cc1S(=O)(=O)NC(=O)NNc1ccccn1 | > 100 µM (inactive) |  | > 100 µM (inactive) | > 100 µM (inactive) | > 100 µM (inactive) | > 100 µM |  | > 100 µM (inactive) | > 100 µM (inactive) | > 100 µM (inactive) | > 100 µM (inactive) | > 100 µM (inactive) | > 100 µM (inactive) |  | > 100 µM (inactive) | > 100 µM (inactive) | > 100 µM (inactive) |  | > 100 µM (inactive)
10 | COc1cc2c(cc1OC)C1(COc3cc(O)c(O)c(O)c3C1=O)C2 (stereo unspecified) | > 50 µM (inactive) | > 50 µM (inactive) | > 50 µM (inactive) | > 50 µM (inactive) | > 50 µM (inactive) | > 50 µM |  | > 50 µM (inactive) | > 50 µM (inactive) | > 50 µM (inactive) | > 50 µM (inactive) | > 50 µM (inactive) | > 50 µM (inactive) | > 50 µM (inactive) | > 50 µM (inactive) | > 50 µM (inactive) | > 50 µM (inactive) | > 50 µM (inactive) | 0.005 µM (active)
11 | Nc1ccc(SC23CC4CC(CC(C4)C2)C3)cc1 |  | > 100 µM (inactive) | > 100 µM (inactive) | > 100 µM (inactive) |  | > 100 µM | > 100 µM (inactive) |  | > 100 µM (inactive) | > 100 µM (inactive) | < 0.01 µM (active) | > 100 µM (inactive) | > 100 µM (inactive) | > 100 µM (inactive) | > 100 µM (inactive) | > 100 µM (inactive) | 54.5 µM (inactive) | > 100 µM (inactive) | 61.8 µM (inactive)
12 | C#CCC(O)c1ccc(OC)c(OCc2ccccc2)c1 (stereo unspecified) | > 100 µM (inactive) | > 100 µM (inactive) |  | 82.2 µM (inactive) | > 100 µM (inactive) | > 100 µM |  | 23.6 µM (inactive) | > 100 µM (inactive) | > 100 µM (inactive) | 32.8 µM (inactive) | > 100 µM (inactive) | > 100 µM (inactive) | > 100 µM (inactive) | > 100 µM (inactive) | > 100 µM (inactive) | > 100 µM (inactive) | 52.1 µM (inactive) | > 100 µM (inactive)
13 | CSC1=Nc2ccccc2-c2nc(-c3ccccc3)cc(-c3ccccc3)c2C1 | 26.5 µM (inactive) | > 100 µM (inactive) | 31.3 µM (inactive) | 19.7 µM (inactive) | 8.93 µM (inactive) | 31.6 µM | 39.7 µM (inactive) | > 100 µM (inactive) | 10.2 µM (inactive) | 30.5 µM (inactive) | 87.9 µM (inactive) | 21.4 µM (inactive) | 33 µM (inactive) | 23.5 µM (inactive) | 13.9 µM (inactive) | 4.7 µM (inactive) |  | 28.1 µM (inactive) | 
14 | CCN1CCCC(C#N)(c2ccccc2)CC1 (stereo unspecified) | > 100 µM (inactive) | > 100 µM (inactive) | > 100 µM (inactive) | > 100 µM (inactive) | > 100 µM (inactive) | > 100 µM |  | > 100 µM (inactive) | > 100 µM (inactive) | > 100 µM (inactive) |  | > 100 µM (inactive) | > 100 µM (inactive) | > 100 µM (inactive) | > 100 µM (inactive) |  | > 100 µM (inactive) | > 100 µM (inactive) | 
15 | COc1cccc(/C(CC(O)(C(F)(F)F)C(F)(F)F)=N\N(C)C)c1 | > 100 µM (inactive) | > 100 µM (inactive) | > 100 µM (inactive) | > 100 µM (inactive) | > 100 µM (inactive) | > 100 µM |  | > 100 µM (inactive) | > 100 µM (inactive) | > 100 µM (inactive) | > 100 µM (inactive) | > 100 µM (inactive) | > 100 µM (inactive) | > 100 µM (inactive) | > 100 µM (inactive) | > 100 µM (inactive) | > 100 µM (inactive) |  | 
16 | Oc1ccc(-c2nc3cc(C(F)(F)F)ccc3n2CC2CCCN3CCCCC23)cc1 (stereo unspecified) | 16.2 µM (inactive) | 15.6 µM (inactive) | 16.6 µM (inactive) | 16.5 µM (inactive) | 15.1 µM (inactive) | 16.1 µM |  | 15 µM (inactive) | 17 µM (inactive) | 13.4 µM (inactive) | 16.3 µM (inactive) | 14.1 µM (inactive) | 13.8 µM (inactive) | 11.7 µM (inactive) | 16.3 µM (inactive) | 15.4 µM (inactive) | 14.8 µM (inactive) | 16.3 µM (inactive) | 12.6 µM (inactive)
17 | CCOC(=O)C[C@@]12CCCNC1(C)CCc1ccccc12 (stereo partly specified) |  | > 100 µM (inactive) |  |  |  | > 100 µM |  | > 100 µM (inactive) | > 100 µM (inactive) | > 100 µM (inactive) | > 100 µM (inactive) |  |  | > 100 µM (inactive) | > 100 µM (inactive) |  |  | > 100 µM (inactive) | 
